Results published in patent US20190142744A1, “NUCLEIC ACID NANOCAGES, COMPOSITIONS, AND USES THEREOF” (North Carolina State University, priority 2015, published 2019).
Numbering of substitutions follows the chain as printed.

B1: NC-0: DNA NC variant with 0 nucleotides complementary to the sgRNA (nucleic acid)
DNA: GAGAAACGAGTGCGGTCACAGCTAAGCTAGATGCATCTAGCAAGCGCCGCCACTGATTTCACCGCTTCAAGCTAGATGCATCTAGCAAT
modifications: DNA nanoclew made by rolling circle amplification of circularized template, further chemistry not given here; the letters are possibly those of the target site
notes: DNA NC variant with 0 nucleotides complementary to the sgRNA
B2: NC-23: DNA NC variant with 23 nucleotides complementary to the sgRNA (nucleic acid)
DNA: GGGCACGGGCAGCTTGCCGGTGGAAGCTAGATGCATCTAGCAAGCGCCGCCACTGATTTCACCGCTTCAAGCTAGATGCATCTAGCAAT
modifications: DNA nanoclew made by rolling circle amplification of circularized template, further chemistry not given here; the letters are possibly those of the target site
notes: DNA NC variant with 23 nucleotides complementary to the sgRNA
B3: NC-12: DNA nanoclew encoding 12 nucleotides complementary to the 5′ end of the sgRNA (nucleic acid)
DNA: B2 DNA with G2C, G3T, C4A, A5C, C18A, G19T, G20C, T21A, G22A, G23T
modifications: Rolling circle amplification template for DNA nanoclew, further chemistry not given here; the letters are possibly those of the target site
notes: DNA nanoclew encoding 12 nucleotides complementary to the 5′ end of the sgRNA

What was measured:
[1] = tested on: MCF-7 cells; test: Determination of endocytosis pathways in MCF-7 cells; format: cell-based, human; conditions: CPZ 10 μM, AMI 1 mM, DOX 2 μM, 2 h
Experimental: MCF-7 cells were seeded in 6-well plates (1×10^4 cells per well) and culture for 48 h. […] Then the cells were incubated with DOX/FA-NCl/NCa at DOX concentration of 2 μM or FA-NCI/AF488-NCa of the same concentration in the presence of the inhibitors for another 2 h. After washing the cells by 4° C. PBS twice, the cells were lysed with Pierce IP lysis buffer (Thermo Scientific) and centrifuged. Fluorescence of DOX and AF488 and protein concentration in the supernatant were measured, respectively, by a microplate reader (Infinite […], Tecan).

[2] = tested on: U2OS.EGFP cells; test: Determination of endocytosis pathways in U2OS.EGFP cells; format: cell-based, human; conditions: MCD 3 mM, AMI 1 mM, flow cytometry
Experimental: U2OS.EGFP cells were seeded in 24-well plates (˜25000 cells/well) and cultured for 2 d. Then the cells were pre-incubated with several endocytosis inhibitors^[19b], such as chlorpromazine (CPZ, 10 μM) for clathrin-mediated endocytosis, nystatin (NYS, 25 μg/mL) for caveolin-mediated endocytosis, methyl-β-cyclodextrin (MCD, 3 mM) for lipid raft and amiloride (AMI, 1 mM) for macropinocytosis, for 1 h at 37° C., respectively. Afterwards, the cells were incubated with AF647-Cas9/sgRNA/NC/PEI for another 2 h in the presence of the inhibitors. Cells were then washed, trypsinized and resuspended in full serum medium, intracellular AF647 fluorescence intensities were analyzed by flow cytometry.

[3] = Stability of DNA NC incubated with Cas9/sgRNA (agarose gel); format: physicochemical; conditions: Cas9/sgRNA 24 h
Experimental: The DNA NCs were prepared by RCA using cyclized single stranded DNA (ssDNA) templates. 5′ phosphorylated linear ssDNA templates (FIG. 21) were cyclized by CircLigase II ssDNA ligase (Epicentre) following manufacture's instructions. Unligated ssDNA chains were removed with 1 U Exo I (NEB) at 37° C. for 45 min followed by heat inactivation at 80° C. for 15 min. The cyclized ssDNA template (10 pmol) was added into 1 mL 1× isothermal amplification buffer (NEB) together with 0.5 μM primer and 200 μM dNTP and heated to 95° C. for 5 min. After hybridizing the template and primer by cooling the mixture to room temperature, Bst 2.0 DNA polymerase (0.2 U/μL) was added to initiate the RCA. The RCA was performed at 65° C. overnight and the denatured polymerase after the reaction was removed by centrifugation at 14,000×g for 2 min. […] The synthesized DNA NCs were analyzed by 0.8% agarose gel electrophoresis and Nanodrop 2000C (Thermal Scientific) was applied to measure the concentration and purity of the DNA NC. […] Zeta potential and particle size of NC were measured with a Zetasizer (Malvern). To image the NC by atomic force microscopy (AFM), the NC was dropped and dried onto a silicon wafer (Ted Pella) and analyzed on a Nanoscope AFM instrument (Veeco, Santa Barbara, Calif.) using tapping mode in ambient air.

[4] = tested on: EGFP gene in U2OS.EGFP cells; test: EGFP gene disruption assay in U2OS.EGFP cells (fluorescence microscopy, flow cytometry); format: cell-based, human; conditions: NC-23, NC-12, NC-0 coated with PEI; different Cas9/sgRNA molar ratios
Experimental: The reporter cell line U2OS.EGFP with a single copy of destabilized EGFP gene integrated into the genome was a generous gift from Dr. J Keith Joung at Massachusetts General Hospital.^[6b] The cells were cultured in a 37° C. incubator under 5% CO2 and 90% humidity with full serum medium: Dulbecco's Modified Eagle's Medium supplemented with 10% (v/v) FBS, 2 mM GlutaMAX (Life Technologies), penicillin (100 U/mL) and streptomycin (100 μg/mL). U2OS.EGFP cells were seeded into 24-well plates (˜25,000 cells per well) one day before the transfection. […] Two days after the delivery, the cells were analyzed using a fluorescent microscope (IX71, Olympus). For the flow cytometry analysis, the cells were washed with ice cold PBS twice and trypsinized with 0.05% trypsin (Mediatech) at 37° C. for 1-2 min. Afterwards, the cells were washed and resuspended in full serum medium and analyzed by a BD Accuri C6 flow cytometer (BD Biosciences).

Molecule	effect of endocytosis inhibitor on internalization of DOX/FA-NCl/NCa [1]	effect of endocytosis inhibitor on uptake of Cas9/sgRNA/NC-12/PEI (AF647-Cas9) [2]	resistance of DNA NC to Cas9/sgRNA degradation [3]	further results
N=C(N)NC(=O)c1nc(Cl)c(N)nc1N [amiloride]	pronounced effects in inhibiting the internalization	greatest reduction in Cas9 uptake	–	–
CN(C)CCCN1c2ccccc2Sc2ccc(Cl)cc21 [chlorpromazine]	pronounced effects in inhibiting the internalization	–	–	–
methyl-β-cyclodextrin	–	greatest reduction in Cas9 uptake	–	–
B1	–	–	resistant to Cas9/sgRNA degradation	–
B2	–	–	resistant to Cas9/sgRNA degradation	–
B3	–	–	–	fraction of EGFP negative cells among DNA NC variants [4]: highest fraction of EGFP negative cells
